# Reference: patent US20220152022A1
# Several values for one entry are separate records, joined by “and”; a condition that tells them apart may be missing. Identical values can stand only once. Counter-ions that a name gives are not always drawn.
# Legend:
# Type in all cases: in vivo, human
# [1] = test system: Children with Progressive Familial Intrahepatic Cholestasis; experiment: INDIGO phase 2 open-label efficacy and safety study of maralixibat
# Source text: The HRQoL used was the […] QUALITY OF LIFE INVENTORY (PedsQL).
# [2] = test system: Overweight and Obese Adults; experiment: Dose-ranging phase 1 clinical study (NCT02475317), multiple oral doses for 7 days; details: for treatment-emergent adverse events: all doses, 7 days; for Mean serum 7αC4: change from baseline to day 7, greatest change at maralixibat 50 mg BID; for Mean sBA levels: versus baseline, day 7
# [3] = test system: Participants with Primary Sclerosing Cholangitis (PSC); experiment: CAMEO 14-week single-arm open-label phase 2a proof-of-concept study
# Procedure: Participants were adults aged 18-80 years with a diagnosis of PSC. PSC diagnosis included a documented history of alkaline phosphatase (ALP) levels greater than 1.5 times above the upper limit of normal, biliary obstruction, and histological findings consistent with PSC diagnosis (if previously biopsied). The study enrolled 27 adults.
# Efficacy was assessed by measuring at baseline and throughout the study sBA concentration, serum 7αC4 concentration (a marker of de novo bile acid synthesis), serum aoutotaxin concentration, LDL-C concentration, serum total cholesterol concentration, serum liver enzyme concentrations, and pruritus severity. Pruritus severity was determined by calculating Adult Itch Reported Outcome (ITCHRO) weekly sum scores and average daily scores (mean score over a 7-day period). Participants self-reported the ITCHRO daily on a scale 0-10 (0=no pruritus; 10=most severe pruritus).
# Outcomes were assessed in the overall study population and in subgroups of participants (A) with any pruritus at baseline or (B) with an ITCHRO average daily score ≥4 out of 10 at baseline. Efficacy endpoints were based on change from baseline to week 14 or early termination (ET) and were analyzed using paired t-tests or Wilcoxon signed rank tests.
# [4] = test system: Children with Alagille Syndrome; experiment: ICONIC phase 2b randomized placebo-controlled drug-withdrawal study with long-term extension
# Procedure: Children aged 1-18 years with a diagnosis of ALGS and evidence of cholestasis were eligible to enroll in the ICONIC clinical study, see Tables 12-14. During a long-term extension, participants with sBA levels above the upper limit of normal and/or an ITCHRO(OBS) score >1.5 were eligible for the 400 μg/kg BID dose (all participants received the 400 μg/kg BID dose). Inclusion criteria for the ICONIC study included having cholestasis, which was defined as at least one of 1) sBA concentration (total sBA) >3× the upper limit of normal, 2) serum conjugated bilirubin concentration >1 mg/dL, 3) fat-soluble vitamin deficiency not otherwise explained, 4) serum gamma-glutamyl transferase concentration >3× the upper limit of normal, and 3) intractable pruritus explainable only by liver disease. Inclusion criteria also included having significant pruritus, which was defined as an average daily score of >2 on the ITCHRO(OBS) scale for 2 consecutive weeks (0=no pruritus; 4=most severe pruritus). Exclusion criteria included having surgically disrupted enterohepatic circulation, a liver transplant, decompensated cirrhosis, or having any liver disease other than ALGS.
# sBA responders were defined as those patients achieving ≥50% reduction from baseline in sBA at week 12 or 18. ITCHRO responders were defined as those patients achieving at least a 1-point reduction from Baseline in weekly morning ITCHRO(OBS) score at week 12 or 18.
# In the open label extension, the effect of higher doses was explored by increasing dosage to a maximum of 400 μg/kg BID in eligible participants.
# Efficacy assessments were based on changes from baseline in sBA concentration, weekly average ITCHRO(OBS) scores (0, none; 4, most severe), CSS score (0, none; 4 most severe), and Clinician Xanthoma Scale score (0, none; 4, disabling). […] During the long-term extension, efficacy assessments were conducted every 12 weeks. Serum total cholesterol and serum 7αC4 concentration were also monitored during the ICONIC clinical study, among other measures.
# sBA were measured using a fully validated liquid chromatography-electrospray ionization-mass electrospray (LC-ESI-MS) method using stable-isotope dilution analysis to measure serum concentrations of principal bile acids (cholic, chenodeoxycholic, ursodeoxycholic, deoxycholic acid, lithocholic, and their corresponding glycine and taurine conjugates). Serum samples were analyzed in the Division of Pathology and Laboratory Medicine, Cincinnati Children's Hospital Medical Center according to SOP #PATH.CMS.1033. Calibration standards of individual bile acids were in the range of 50-25,000 ng/mL and Quality Control samples were prepared at concentrations of 100, 500, 1000, 2500, and 20000 ng/mL. The intra- and inter-assay imprecision of the method for individual bile acids measured was within the accepted GLP quality assurance guidelines of <15% coefficient of variance for these QC samples. The lower limit of quantification of the assay was set at 100 ng/mL and the imprecision at this concentration was <20%. The limit of detection of the assay was 5 ng/mL. Total sBA is represented by the sum of the individual bile acid species measured.
compound,measurement,setting,value
CCCCC1(CCCC)CS(=O)(=O)c2ccc(N(C)C)cc2[C@@H](c2ccc(OCc3ccc(C[N+]45CCN(CC4)CC5)cc3)cc2)[C@H]1O.[Cl-] [maralixibat],multi-parameter response,[1]; all PFIC 1 patients and all patients harboring a truncating ABCB11 mutation,not multi-parameter responders
same,"serum ALT, AST, and bilirubin concentrations over time","[1]; all low-dose responders, e.g. within 2-6 months of first administration",normalized or only mildly elevated
same,height Z-score,"[1]; high dose responder, following treatment response on sBA",increase in height Z-score
same,Response,"[1]; individual PFIC 2 participants, one line each, max dose 280 or 560 μg/kg/day (Table 6), No reponse [sic] / Rapid complete response / Good response / No response until 560 reached",Rapid (4×) and No (19×) and Good
same,cholestasis markers after dose increase,"[1]; low-dose responder losing response in long-term extension, raised to 280 μg/kg BID at between 640 and 730 days","sBA concentration decreased, severity of pruritus decreased, serum 7αC4 concentration increased, and 7αC4:sBA ratio increased"
same,growth (height Z-score change relative to baseline),[1]; low-dose responders (FIG. 4),improved growth relative to baseline
same,7αC4 concentrations at 48 weeks,"[1]; low-dose responders (range, 3-43)",14 × baseline
same,multi-parameter responders,"[1]; mild PFIC 2 patients, 280 μg/kg QD",1 of 7
same,responders only after higher dose (high-dose responder),"[1]; moderate PFIC 2 patients, 280 μg/kg twice daily",1 of 12
same,responders by week 48,"[1]; moderate PFIC 2 patients, 280 μg/kg/day",5 of 12
same,growth (height Z-score change relative to baseline),[1]; non-responders (FIG. 4),did not
same,7αC4 concentrations at 48 weeks,"[1]; non-responders (range, 0.5-6)",1.8 × baseline
same,duration of maintained response,"[1]; responders, long-term extension",for over a year and for up to or beyond 5 years
same,treatment-emergent adverse events,[2],"All treatment-emergent adverse events were mild, and none were serious"
same,Mean serum 7αC4,[2],increased
same,Mean sBA levels,[2],not elevated
same,tolerability,"[3]; adults with PSC, up to 10 mg/day, 14 weeks",well tolerated
same,"Changes in serum total bilirubin, alanine aminotransferase, aspartate aminotransferase, and alkaline phosphatase concentrations",[3]; all participants,not statistically significant
same,participants with worsening of pruritus by >1 point,[3]; baseline to week 14,No participants
same,participants with ITCHRO average daily score improved by >1 point,[3]; count of all participants,8 out of 27
same,participants with ITCHRO average daily score improved by >3 points,[3]; count of all participants,6 of 27
same,"Mean conjugated bilirubin levels, increase",[3]; overall population,0.19 mg/dL
same,conjugated bilirubin levels,[3]; participants with ITCHRO daily score ≥0 at baseline (so in the source),no significant change
same,autotaxin levels,[3]; participants with ITCHRO daily score ≥4 at baseline,significant reductions
same,weight Z-scores,[4]; 400 μg/kg QD then 400 μg/kg BID (FIGS. 35-36),dose-dependent increase in weight Z-scores
same,Change in ItchRO from Baseline to Week 48,"[4]; ITCHRO(OBS) weekly morning average score, individual subjects (Table 18)",−0.12 and 0.49 and −0.45 and 0.00 and −1.86 (2×) and −1.71 (2×) and −1.00 (2×) and −1.29 and −1.67 and −1.14 and −1.03 and −2.50 and −2.71 and −3.50 and −0.17 and −1.43 and −0.83
same,study days reported as minimal or no pruritus (ITCHRO(OBS)<1),"[4]; across participants, after 98 weeks",over 89%
same,Clinician xanthoma scale scores,"[4]; all participants, by week 48 (p<0.01)",improved significantly
same,quality of life,[4]; core study and extension,improved quality of life
same,PedsQL Multidimensional Fatigue Scale scores,[4]; core study and extension (p<0.01),Improvements were seen
same,tolerability,"[4]; core study and extension, doses up to 800 μg/kg/day, up to 4 years",generally well tolerated
same,"ItchRO(Obs) Weekly Morning Average Score, Change from Baseline to Week 48","[4]; individual subjects, one line each (Table 19)",−1.86 (2×) and −1.71 (2×) and −1.00 (2×) and −1.29 and −1.67 and −1.14 and −1.03 and −1.43
same,growth after dose increase,[4]; patients (N=15) given 400 μg/kg BID after 400 μg/kg QD for more than about 40 weeks,further increase in growth from baseline
same,"sBA responders at Week 48 (N = 28), %",[4]; sBA Response Definition Normalization (<8.5 μmol/L),(3.6%)
same,"sBA responders at Week 48 (N = 28), %",[4]; sBA Response Definition ≥80% Reduction,(14.3%)
same,"sBA responders at Week 48 (N = 28), %",[4]; sBA Response Definition ≥90% Reduction,(3.6%)
"CCCC[C@]1(CC)CS(=O)(=O)c2ccc(N(C)C)cc2[C@@H](c2cccc(NC(=O)N[C@@H]3O[C@H](COS(=O)(=O)O)[C@@H](O)[C@H](OCc4ccccc4)[C@H]3O)c2)[C@H]1O (stereo in doubt) [volixibat, (2R,3R,4S,5R,6R)-4-benzyloxy-6-{3-[3-((3 S,4R,5R)-3-butyl-7-dimethylamino-3-ethyl-4-hydroxy-1,1-dioxo-2,3,4,5-tetrahydro-1H-benzo[b]thiepin-5-yl)-phenyl]-ureido}-3,5-dihydroxy-tetrahydro-pyran-2-ylmethyl) hydrogen sulfate]",treatment-emergent adverse events,[2],"All treatment-emergent adverse events were mild, and none were serious"
same,Mean serum 7αC4,[2],increased
same,Mean sBA levels,[2],not elevated
